Test in all cases: UGT reaction phenotyping, recombinant Supersomes
Data set [1] addresses T1, UGT1A9 (Homo sapiens, UniProt O60656).
T1 sequence (O60656 26-530): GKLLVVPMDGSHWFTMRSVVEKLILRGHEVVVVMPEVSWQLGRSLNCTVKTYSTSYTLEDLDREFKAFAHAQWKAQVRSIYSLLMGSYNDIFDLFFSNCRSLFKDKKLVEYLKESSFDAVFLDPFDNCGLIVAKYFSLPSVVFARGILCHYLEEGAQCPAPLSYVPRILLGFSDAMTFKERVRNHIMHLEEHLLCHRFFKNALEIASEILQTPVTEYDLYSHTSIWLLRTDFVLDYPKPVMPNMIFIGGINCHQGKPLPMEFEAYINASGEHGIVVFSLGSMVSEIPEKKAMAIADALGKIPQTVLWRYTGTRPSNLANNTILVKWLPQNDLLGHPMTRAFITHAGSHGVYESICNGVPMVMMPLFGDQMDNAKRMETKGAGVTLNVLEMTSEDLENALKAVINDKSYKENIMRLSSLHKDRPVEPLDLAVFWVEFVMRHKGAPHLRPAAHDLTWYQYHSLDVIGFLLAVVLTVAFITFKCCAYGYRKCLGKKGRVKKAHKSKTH
Particulars: pH 7.4; for half-life at 1 µM / microsomal CLint at 1 µM: recombinant enzyme. As to the method:
(§1) Experimental Summary: UGT Reaction Phenotyping (7 Isoforms).
(§2) Experimental Procedure: cDNA expressed human UGT enzyme preparations (Supersomes) supplied by BD Biosciences were obtained and stored at −80° C. prior to use. The specific isoforms were chosen by the performing laboratory based on published guidelines. They are considered the clinically relevant of the UGT isoforms (E. Kasteel et al. Human variability in isoform-specific UDP-glucuronosyltransferases: markers of acute and chronic exposure, polymorphisms and uncertainty factors. Arch Toxicol. 2020; 94(8): 2637-2661)
(§3) Supersomes in 0.1 M Tris buffer pH 7.4, alamethicin (44.6 μg/mL) and test compound (final concentration of 5 μM; final DMSO concentration ≤0.1%) were pre-incubated at 37° C. prior to the addition of UDGPA (final concentration 2 mM) to initiate the reaction. Incubations were also performed using control Supersomes (no UGT enzymes present) to reveal any non-enzymatic degradation. Compounds known to be metabolized specifically by each UGT isoform were used as control compounds (7-hydroxy-4-trifluoromethylcoumarin, all but UGT1A4, or trifluoperazine for UGT1A4).
(§4) CBG or Compound 1 were incubated in duplicate for 0, 10, 20, 40 and 60 min with each isoform. The reactions were stopped by the addition of methanol containing an analytical internal standard at the time points specified in the table above. Stopped reactions were kept on ice for at least ten minutes and the samples were centrifuged to remove precipitated protein. Supernatants were analyzed by LC-MS/MS methodology developed by the performing laboratory to quantitate the parent remaining.
(§5) The change in CBG concentration were used to calculate the Half life (t1/2 in min) and the intrinsic clearance ([…]) as shown in the following table (S. C, Khojasteh et.al., Drug Metabolism and Pharmacokinetics Quick Guide, Springer, NY, 2011), Intrinsic Clearance (CIint) is a measure of the ability of hepatocytes to eliminate drug irrespective other factors such as blood flow or protein binding. The calculations were the same as those used in Example 3A.

Data set [2] deals with T2, UGT2B7 (Homo sapiens, UniProt P16662).
T2 sequence (P16662 24-529): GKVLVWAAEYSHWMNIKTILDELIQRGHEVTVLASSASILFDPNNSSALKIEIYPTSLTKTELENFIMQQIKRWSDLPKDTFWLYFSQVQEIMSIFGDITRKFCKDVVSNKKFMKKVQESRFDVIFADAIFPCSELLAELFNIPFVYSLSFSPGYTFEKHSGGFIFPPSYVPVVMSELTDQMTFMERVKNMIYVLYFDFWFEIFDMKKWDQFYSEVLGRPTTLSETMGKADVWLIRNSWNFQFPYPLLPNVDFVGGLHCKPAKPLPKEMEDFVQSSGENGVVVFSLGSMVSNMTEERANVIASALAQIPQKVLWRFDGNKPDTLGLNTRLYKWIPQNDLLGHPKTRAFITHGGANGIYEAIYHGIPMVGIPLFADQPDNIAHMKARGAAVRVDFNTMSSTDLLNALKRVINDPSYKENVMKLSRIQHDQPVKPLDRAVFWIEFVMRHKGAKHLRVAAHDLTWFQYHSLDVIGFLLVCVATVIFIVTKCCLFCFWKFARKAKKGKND
To be noted: for half-life at 1 µM / microsomal CLint at 1 µM: human, recombinant enzyme, pH 7.4. The procedure: as §1, §2, §3, §4, §5

Data set [3] has as its target T3, UGT1A1 (Homo sapiens, UniProt P22309).
T3 sequence (P22309 26-533): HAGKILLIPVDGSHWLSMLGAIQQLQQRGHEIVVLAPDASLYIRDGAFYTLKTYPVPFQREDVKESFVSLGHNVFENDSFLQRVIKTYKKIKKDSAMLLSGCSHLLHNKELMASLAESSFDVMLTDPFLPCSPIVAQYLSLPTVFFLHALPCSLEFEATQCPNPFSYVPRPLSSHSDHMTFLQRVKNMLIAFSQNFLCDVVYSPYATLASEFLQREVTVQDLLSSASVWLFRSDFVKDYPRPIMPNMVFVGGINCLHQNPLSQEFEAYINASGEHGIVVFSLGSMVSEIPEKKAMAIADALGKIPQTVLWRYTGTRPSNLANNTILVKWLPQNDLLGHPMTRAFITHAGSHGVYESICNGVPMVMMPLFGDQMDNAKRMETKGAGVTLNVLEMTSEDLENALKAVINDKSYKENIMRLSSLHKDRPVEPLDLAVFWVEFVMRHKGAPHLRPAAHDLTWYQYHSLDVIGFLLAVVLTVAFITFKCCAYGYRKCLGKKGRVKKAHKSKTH
To be noted: recombinant enzyme, pH 7.4. As to the method:
as §1, §2, §3, §4, §5

Molecules are shown by their SMILES.

For the compound `CCCCCc1cc(O)c(C/C=C(\C)CCC=C(C)C)c(OC)c1` [Compound 1, (E)-2-(3,7-dimethylocta-2,6-dien-1-yl)-3-methoxy-5-pentylphenol], the half-life at 1 µM in data set [1] was found to be 14 min; in data set [2], 24.8 min; in data set [3], 103 min. For the same compound, the microsomal CLint at 1 µM in data set [1] was found to be 99.1 µL/min/mg; in data set [2], 55.9 µL/min/mg; in data set [3] it was 13.5 µL/min/mg.

For `O=c1cc(C(F)(F)F)c2ccc(O)cc2o1` [7-OH4trifluoromethylcoumarin, 7-hydroxy-4-trifluoromethylcoumarin], the half-life at 1 µM worked out at 3.04 min in data set [1], 50.4 min in data set [2] and 33.1 min in data set [3]. Further, the microsomal CLint at 1 µM turned out to be 456 µL/min/mg in data set [1], 27.5 µL/min/mg in data set [2] and 41.8 µL/min/mg in data set [3].

Turning to `CCCCCc1cc(O)c(C/C=C(\C)CCC=C(C)C)c(O)c1` [CBG, cannabigerol], the “share of UGT1A9 in the activity with CBG for all the UGTs combined” value in data set [1] (5 µM) is reported as roughly 80%. Also, the half-life at 1 µM in data set [1] is 1.92 min; in data set [2] it was 17.9 min; in data set [3] it was 77.1 min. In addition, the microsomal CLint at 1 µM worked out at 721 µL/min/mg in data set [1], 77.5 µL/min/mg in data set [2] and 18 µL/min/mg in data set [3]. Besides, the “activity of UGT2B7 relative to UGT1A9” value in data set [2] (CBG as substrate) is listed as “approximately 1/10”.
